# Laboratory results taken from US20250032454A1, “KDM1A INHIBITORS FOR THE TREATMENT OF DISEASE” (Imago Biosciences, Inc., priority 2021, published 2025).
# Read-outs that look alike come from different tables or passages of the source.
# How the values were obtained:
# LSD1 = LSD1 (Homo sapiens, UniProt O60341); experiment: LSD1 fluorescence coupling enzyme assay (HRP/Amplex Red, H3(1-21)K4me2 peptide), 10-dose IC50; type: biochemical; conditions: 10 μM histone H3(1-21)K4me2 peptide substrate, 3-fold serial dilution from 100 μM
# Procedure, shortened: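 Fluorescence coupled assay: LSD1 demethylation of 10 μM H3(1-21)K4me2 peptide produces FAD-dependent H2O2, detected via HRP/Amplex Red as resorufin (Ex/Em 535/590 nm). IC50 from 10 doses, 3-fold serial dilution from 100 μM, in duplicate.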
# MV4;11 cells = experiment: Cell Titer-Glo cell growth inhibition in MV4;11 cell line (Day 5 / Day 10); type: cell-based; conditions: Homo sapiens
# Procedure, shortened: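 Cells seeded at 3750/well and treated with a 10-point, 4-fold dose curve from 0 to 50 µM; ATP-based luminescence viability read at Day 5. A portion is reseeded into fresh compound and media for 5 more days, read at Day 10; IC50 derived from luminescence.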
# [1] = MV4-11, 120 h, Day 5, read-out: Cell Titer-Glo IC50 (5 d)
# [2] = MV4-11, 240 h, Day 10, read-out: Cell Titer-Glo IC50 (10 d)
IC50 (LSD1) [nM],IC50 (MV4;11 cells; [1]) [nM],IC50 (MV4;11 cells; [2]) [nM],Structure (SMILES),"IC50 (MV4;11 cells; 120 h, Day 5, read-out: Cell Titer-Glo IC50 (5 d)) [nM]","IC50 (MV4;11 cells; 240 h, Day 10, read-out: Cell Titer-Glo IC50 (10 d)) [nM]"
> 10000,1000 to 10000,1000 to 10000,"N#Cc1ccc(-c2cc(NC[C@H]3CCC[C@H](N)C3)nn2-c2ccncc2)cc1F [Example 17, 4-(3-((((1S,3S)-3-aminocyclohexyl)methyl)amino)-1-(pyridin-4-yl)-1H-pyrazol-5-yl)-2-fluorobenzonitrile]",,
1000 to 10000,500 to 1000,500 to 1000,"COc1ccc(-n2nc(NC[C@H]3CCC[C@H](N)C3)cc2-c2ccc(C(F)(F)F)c(F)c2)cc1 [Example 18, N-(((1S,3S)-3-aminocyclohexyl)methyl)-5-(3-fluoro-4-(trifluoromethyl)phenyl)-1-(4-methoxyphenyl)-1H-pyrazol-3-amine]",,
< 500,< 500,< 500,"N#Cc1ccc(-c2cc(NC[C@H]3CCC[C@H](N)C3)nn2-c2ccc(N3CCCC3)cc2)cc1F [Example 19, 4-(3-((((1S,3S)-3-aminocyclohexyl)methyl)amino)-1-(4-(pyrrolidin-1-yl)phenyl)-1H-pyrazol-5-yl)-2-fluorobenzonitrile]",,
< 500,,< 500,"CO[C@H]1CCN(c2ccc(-n3nc(NC[C@H]4CCC[C@H](N)C4)cc3-c3ccc(C#N)c(F)c3)c(F)c2)C1 [Example 20, 4-(3-((((1S,3S)-3-aminocyclohexyl)methyl)amino)-1-(2-fluoro-4-((S)-3-methoxypyrrolidin-1-yl)phenyl)-1H-pyrazol-5-yl)-2-fluorobenzonitrile]",,
500 to 1000,500 to 1000,,"Cn1cc2cc(-n3nc(NC[C@@H]4CCNC4)cc3-c3ccc(C#N)c(F)c3)ccc2n1 [Example 21R, (R)-2-fluoro-4-(1-(2-methyl-2H-indazol-5-yl)-3-((pyrrolidin-3-ylmethyl)amino)-1H-pyrazol-5-yl)benzonitrile]",,
< 500,< 500,,"Cn1cc2cc(-n3nc(NC[C@H]4CCNC4)cc3-c3ccc(C#N)c(F)c3)ccc2n1 [Example 21S, (S)-2-fluoro-4-(1-(2-methyl-2H-indazol-5-yl)-3-((pyrrolidin-3-ylmethyl)amino)-1H-pyrazol-5-yl)benzonitrile]",,
< 500,1000 to 10000,< 500,"COc1ccc(-n2nc(NCC3CCCNCC3)cc2-c2ccc(C#N)c(F)c2)cc1 (stereo not shown) [Example 22, 4-(3-((azepan-4-ylmethyl)amino)-1-(4-methoxyphenyl)-1H-pyrazol-5-yl)-2-fluorobenzonitrile]",,
< 500,< 500,< 500,"N#Cc1ccc(-c2cc(NCC3CCCNCC3)nn2-c2ccc(N3CCCC3)cc2)cc1F (stereo not shown) [Example 24, 4-(3-((azepan-4-ylmethyl)amino)-1-(4-(pyrrolidin-1-yl)phenyl)-1H-pyrazol-5-yl)-2-fluorobenzonitrile]",,
1000 to 10000,500 to 1000,< 500,"N#Cc1ccc(-c2cc(NCC3CCCNCC3)nn2-c2ccc(C(=O)N3CCCC3)cc2)cc1F (stereo not shown) [Example 25, 4-(3-((azepan-4-ylmethyl)amino)-1-(4-(pyrrolidine-1-carbonyl)phenyl)-1H-pyrazol-5-yl)-2-fluorobenzonitrile]",,
< 500,< 500,< 500,"N#Cc1ccc(-c2cc(NCC3CCCNCC3)nn2-c2ccc(N3CCS(=O)(=O)CC3)cc2)cc1F (stereo not shown) [Example 26, 4-(3-((azepan-4-ylmethyl)amino)-1-(4-(1,1-dioxidothiomorpholino)-phenyl)-1H-pyrazol-5-yl)-2-fluorobenzonitrile]",,
< 500,< 500,< 500,"N#Cc1ccc(-c2cc(NCC3CCCNCC3)nn2-c2ccc(N3CCN(CCO)CC3)cc2)cc1F (stereo not shown) [Example 27, 4-(3-((azepan-4-ylmethyl)amino)-1-(4-(4-(2-hydroxyethyl)piperazin-1-yl)phenyl)-1H-pyrazol-5-yl)-2-fluorobenzonitrile]",,
500 to 1000,1000 to 10000,1000 to 10000,"COc1ccc(-n2nc(NCC3CCCC(CN)C3)cc2-c2ccc(C#N)c(F)c2)cc1 (stereo not shown) [Example 28, 4-(3-(((-3-(aminomethyl)cyclohexyl)methyl)amino)-1-(4-methoxyphenyl)-1H-pyrazol-5-yl)-2-fluorobenzonitrile]",,
1000 to 10000,500 to 1000,< 500,"Cn1cc2cc(-n3nc(NC[C@@H]4CCC[C@@H](N)C4)c(Cl)c3-c3ccc(C#N)c(F)c3)ccc2n1 [Example 36, 4-(3-((((1R,3R)-3-aminocyclohexyl)methyl)amino)-4-chloro-1-(2-methyl-2H-indazol-5-yl)-1H-pyrazol-5-yl)-2-fluorobenzonitrile]",,
< 500,< 500,< 500,"Cn1cc2cc(-n3nc(NC[C@H]4CCC[C@H](N)C4)c(Cl)c3-c3ccc(C#N)c(F)c3)ccc2n1 [Example 37, 4-(3-((((1S,3S)-3-aminocyclohexyl)methyl)amino)-4-chloro-1-(2-methyl-2H-indazol-5-yl)-1H-pyrazol-5-yl)-2-fluorobenzonitrile]",,
1000 to 10000,,> 10000,"COc1ccc(-n2nc(NCc3cccc(N)c3)cc2-c2ccc(C#N)c(F)c2)cc1 [Example 40, 4-(3-((3-aminobenzyl)amino)-1-(4-methoxyphenyl)-1H-pyrazol-5-yl)-2-fluorobenzonitrile]",,
< 500,< 500,< 500,"COc1ccc(-n2nc(NC[C@H]3C[C@@H](N)C3)cc2-c2ccc(C#N)c(F)c2)cc1 [Example 41, 4-(3-((((1s,3s)-3-aminocyclobutyl)methyl)amino)-1-(4-methoxyphenyl)-1H-pyrazol-5-yl)-2-fluorobenzonitrile]",,
1000 to 10000,1000 to 10000,< 500,"COc1ccc(-n2nc(NC[C@H]3C[C@H](N)C3)cc2-c2ccc(C#N)c(F)c2)cc1 [Example 42, 4-(3-((((1r,3r)-3-aminocyclobutyl)methyl)amino)-1-(4-methoxyphenyl)-1H-pyrazol-5-yl)-2-fluorobenzonitrile]",,
< 500,,< 500,"COC1CCN(c2ccc(-n3nc(NC[C@H]4CCC[C@H](N)C4)cc3-c3ccc(C#N)c(F)c3)cc2)CC1 [Example 43, 4-(3-((((1S,3S)-3-aminocyclohexyl)methyl)amino)-1-(4-(4-methoxypiperidin-1-yl)phenyl)-1H-pyrazol-5-yl)-2-fluorobenzonitrile]",,
500 to 1000,< 500,< 500,"CN1CCN(c2ccc(-n3nc(NC[C@H]4CCC[C@H](N)C4)cc3-c3ccc(C#N)c(F)c3)cc2)CC1 [Example 44, 4-(3-((((1S,3S)-3-aminocyclohexyl)methyl)amino)-1-(4-(4-methylpiperazin-1-yl)phenyl)-1H-pyrazol-5-yl)-2-fluorobenzonitrile]",,
1000 to 10000,500 to 1000,< 500,"CN1CCN(c2cccc(-n3nc(NC[C@H]4CCC[C@H](N)C4)cc3-c3ccc(C#N)c(F)c3)c2)CC1 [Example 45, 4-(3-((((1S,3S)-3-aminocyclohexyl)methyl)amino)-1-(3-(4-methylpiperazin-1-yl)phenyl)-1H-pyrazol-5-yl)-2-fluorobenzonitrile]",,
< 500,< 500,< 500,"N#Cc1ccc(-c2cc(NC[C@H]3CCC[C@H](N)C3)nn2-c2ccc(N3CCN(CCO)CC3)cc2)cc1F [Example 46, 4-(3-((((1S,3S)-3-aminocyclohexyl)methyl)amino)-1-(4-(4-(2-hydroxyethyl)piperazin-1-yl)phenyl)-1H-pyrazol-5-yl)-2-fluorobenzonitrile]",,
1000 to 10000,1000 to 10000,< 500,"CS(=O)(=O)N1CCN(c2cccc(-n3nc(NC[C@H]4CCC[C@H](N)C4)cc3-c3ccc(C#N)c(F)c3)c2)CC1 [Example 49, 4-(3-((((1S,3S)-3-aminocyclohexyl)methyl)amino)-1-(3-(4-(methylsulfonyl)piperazin-1-yl)phenyl)-1H-pyrazol-5-yl)-2-fluorobenzonitrile]",,
< 500,< 500,< 500,"N#Cc1ccc(-c2cc(NC[C@H]3CCC[C@H](N)C3)nn2-c2ccc(N3CCS(=O)(=O)CC3)cc2)cc1F [Example 50, 4-(3-((((1S,3S)-3-aminocyclohexyl)methyl)amino)-1-(4-(1,1-dioxidothiomorpholino)phenyl)-1H-pyrazol-5-yl)-2-fluorobenzonitrile]",,
1000 to 10000,1000 to 10000,< 500,"N#Cc1ccc(-c2cc(NC[C@H]3CCC[C@H](N)C3)nn2-c2cccc(N3CCS(=O)(=O)CC3)c2)cc1F [Example 51, 4-(3-((((1S,3S)-3-aminocyclohexyl)methyl)amino)-1-(3-(1,1-dioxidothiomorpholino)phenyl)-1H-pyrazol-5-yl)-2-fluorobenzonitrile]",,
< 500,< 500,< 500,"N#Cc1ccc(-c2cc(NC[C@H]3CCC[C@H](N)C3)nn2-c2ccc(-c3cn[nH]c3)cc2)cc1F [Example 52, 4-(1-(4-(1H-pyrazol-4-yl)phenyl)-3-((((1S,3S)-3-aminocyclohexyl)methyl)amino)-1H-pyrazol-5-yl)-2-fluorobenzonitrile]",,

Structure (SMILES),IC50 (LSD1) [nM],IC50 (MV4;11 cells; [1]) [nM],IC50 (MV4;11 cells; [2]) [nM],"IC50 (MV4;11 cells; 120 h, Day 5, read-out: Cell Titer-Glo IC50 (5 d)) [nM]","IC50 (MV4;11 cells; 240 h, Day 10, read-out: Cell Titer-Glo IC50 (10 d)) [nM]"
"Cn1ncc2cc(-n3nc(NCC45CCN(CC4)CC5)cc3-c3ccc(C#N)c(F)c3)ccc21 [Example 23, 2-fluoro-4-(1-(1-methyl-1H-indazol-5-yl)-3-((quinuclidin-4-ylmethyl)amino)-1H-pyrazol-5-yl)benzonitrile]",< 500,,,< 500,< 500
